From PubChem BioAssay (NCI) come the findings set out here.

Assay in all cases: NCI tumour cell line growth inhibition, 48 h
Test [1] has as its system DU-145 prostate.
Test [2] concerns EKVX NSCLC.
Test [3] has as its system HCT-116 colon.
Test [4] has as its system HT29 colon.
Test [5] concerns LOX IMVI melanoma.
Test [6] concerns NCI-H23 lung.
In test [7] the test system is NCI/ADR-RES ovarian.
Test [8] relates to OVCAR-3 ovarian.
The subject of test [9] is OVCAR-4 ovarian.
Test [10] deals with SK-MEL-5 melanoma.

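Five compound concentrations were applied to cells in 96-well plates for 48 hours; endpoints were derived by simple linear interpolation of the resulting dose-response curve. At the GI50, growth is halved. At the TGI there is no net growth.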 Where a SMILES comes first, the peptide text is derived from it. [ ]: non-standard residue; d: D form. pGlu = O=C1CC[CH](C(=O)O)N1

As to `COc1cc(C(O)CCBr)c(OC)cc1C` (stereo not given), the TGI in test [1] was more than 100 µM; in [2], more than 100 µM; in [3], more than 100 µM; in [4], more than 58.3 µM; in [5], more than 100 µM; in test [6] it was more than 100 µM. Also, the TGI in test [7] was more than 57.6 µM; in test [8], 44.1 µM; in [9] it was more than 100 µM; in test [10], more than 38 µM.

With `C/C(=N\NC(=S)N1CC2CCC(CC2)C1)c1nccs1`, the TGI in test [1] was determined as 12.5 µM; in test [2], 11.9 µM; in test [3] it was 13.4 µM; in [4], 15.9 µM; in test [5], 9.09 µM; in test [6], 13 µM. Also, the TGI in [7] was found to be 3.9 µM; in [8] it was 19.8 µM; in [9] it was 17.6 µM; in test [10] it was 5.24 µM.

Regarding `CCNC(=O)C1CCCN1C(=O)C(CCCN=C(N)N)NC(=O)C(CC(C)C)NC(=O)C(CC(C)C)NC(=O)C(Cc1ccc(O)cc1)NC(=O)C(CO)NC(=O)C(Cc1c[nH]c2ccccc12)NC(=O)C(Cc1cnc[nH]1)NC(=O)C1CCC(=O)N1` (stereo not given) ([pGlu]HWSYLLRP-NHEt; configuration not given here), the GI50 in test [1], in test [2], in test [3], in test [4], in test [5] and in test [6] was more than 100 µM throughout. In addition, the GI50 in test [7], in [8], in test [9] and in [10] was more than 100 µM each time. For the same molecule, the TGI in [1], in test [2], in test [3], in test [4], in test [5] and in test [6] was more than 100 µM throughout. The TGI in test [7], in [8], in test [9] and in [10] was more than 100 µM throughout.

As to `C[C@@]1(C(=O)O)CCC[C@]2(C)C1CC[C@@]13CC(=O)[C@@](CO)(CC[C@]12O)C3` (stereo not given in full), the GI50 in [1], in test [2], in test [3], in test [4], in test [5] and in test [6] was more than 100 µM in each case. Moreover, the GI50 in test [7], in test [8], in test [9] and in [10] was more than 100 µM in each case. Also, the TGI in test [1], in test [2], in [3], in test [4], in [5] and in test [6] was more than 100 µM throughout. For the same molecule, the TGI in test [7], in test [8], in test [9] and in test [10] was more than 100 µM throughout.

Take `COC(=O)c1ccc(-c2nc3cc(Cl)c(Cl)cc3nc2C#N)cc1`: the GI50 in test [1], in [2], in [3], in test [4], in [5] and in [6] was more than 100 µM each time. Further, the GI50 in test [7], in [8], in [9] and in [10] was more than 100 µM in each case. For the same molecule, the TGI in test [1], in test [2], in test [3], in test [4], in test [5] and in test [6] was more than 100 µM in each case. Besides, the TGI in test [7], in [8], in test [9] and in [10] was more than 100 µM in each case.

In the case of `COc1cccc(N2CCN(CC(=O)N3CCN(c4nnc(-c5ccc(Cl)cc5)c(-c5ccc(Cl)cc5)n4)CC3)CC2)c1`, the GI50 was more than 100 µM in [1]; 12.3 µM in [2]; 5.98 µM in test [3]; 6.47 µM in test [4]; 21.3 µM in [5]; 33.6 µM in test [6]. Also, the GI50 in [7] is 19.9 µM; in [8], 36.9 µM; in test [9], 25.3 µM; in test [10], 8.55 µM. The TGI was more than 100 µM in test [1]; 93.7 µM in [2]; more than 100 µM in [3]; more than 100 µM in test [4]; more than 100 µM in test [5]; more than 100 µM in [6]. For the same molecule, the TGI in [7], in [8], in test [9] and in test [10] was more than 100 µM throughout.

Consider `CSC(=Nc1nnc(-c2ccc([N+](=O)[O-])cc2)s1)SC`, for which the TGI in [1] is more than 100 µM; in test [2], more than 100 µM; in test [3], more than 83.7 µM; in [4], more than 100 µM; in test [5], more than 83.3 µM; in test [6] it was 98.6 µM. The TGI in [7] was more than 100 µM; in test [8] it was more than 89.7 µM; in test [9], more than 85 µM; in test [10], more than 100 µM.

As to `CCOC(=O)Nc1ccc2c(c1)/C(=N\NC(N)=S)c1ccccc1-2`, the GI50 in test [1] was 5.15 µM; in test [2], 4.29 µM; in test [3], 4.32 µM; in test [4] it was 3.23 µM; in [5], 3.52 µM; in [6] it was 2.95 µM. Besides, the GI50 in test [7] is 2.75 µM; in test [8], 4.38 µM; in test [9], 4.39 µM; in [10] it was 2.44 µM. The TGI in [1] worked out at 20 µM; in test [2], 41.2 µM; in test [3], 50 µM; in test [4], 13 µM; in test [5], 20.2 µM; in [6] it was 12.6 µM. Besides, the TGI stood at 9.4 µM in test [7], 27.8 µM in [8], 39.1 µM in [9] and 7.59 µM in test [10].

For `COc1ccc(-c2cc3c(c4cc(OC)ccc24)C(=O)OC3=O)cc1`, the TGI in test [1], in test [2], in test [3], in test [4], in [5] and in test [6] was more than 100 µM in each case. Besides, the TGI in test [7], in test [8], in test [9] and in [10] was more than 100 µM each time.
